Test results taken from patent publication US11884961B2, “DNA-glycan conjugates and methods of use” (GEORGIA STATE UNIVERSITY RESEARCH FOUNDATION, INC., priority 2017, dated 2024).

Assays:
VK9 antibody = test: Multiplex detection of DEGL against VK9 antibody by NGS; type: binding, mouse
Protocol: Next, we wanted to translate the results to more promising NGS based parallel screening. Initially we tested the different concentrations of DEGL with different concentrations of VK9 antibody using the PCR and qPCR assays. We incubated 1 uM, 500 nM, 100 nM and 10 nM samples with 0.5 μL, 1 μL, and 2 μL of the VK9 antibody (0.5 μg/μL), and unbound glycans were washed out after precipitating the bound glycan-VK9 complex on protein A/G beads. Each assay was compared to the same amount of DEGL with no VK9 negative control. Then, washed beads were used as the template for the NGS analysis. Briefly, beads were diluted to 20 μL, and from this, 2 μL was used for the initial PCR amplification (18 cycles). PCR products were then purified using AMpure beads (Beckman Coulter) according to the manufacturer's protocol and used for the NGS fusion PCR to incorporate the index codes and ion-torrent NGS adapters. Now about 150 bp DNA codes, it was again purified using AMpure beads, and all barcoded samples were run through an Agilent Bioanalyzer for quality control. Samples were then pooled in equimolar concentration and adjusted to the desired 26 pM for the NGS, analyzed using ion-PGM semiconductor sequencer. Data were analyzed using ‘FASTAPTAMER’ software,[39] and an in house developed program. […]

[1] = tested on: VK9, a mouse IgG anti-Globo H monoclonal antibody; test: ELISA of DEGL (glycan-DNA codes coated with Pierce DNA coating solution) against VK9; type: binding; details: glycan-DNA conjugates coated directly onto plastic; OD450
Text: (§1) Initially we validated the selected system with the conventional ELISA to confirm the antibody binding capacity and specificity of the glycans. Since sugars have low binding affinity for unmodified plastic surfaces, the binding protein, streptavidin, was used to capture biotinylated sugars. In another experiment we also tested DEGL using ELISA to see the effect of different presentation of glycans. For this assay, we coated the DEGL onto plastic surfaces directly. Both naked glycan and DEGL was tested against VK9, a mouse IgG anti-Globo H monoclonal antibody. […] We rationalize this difference in pattern to the different presentation of glycan epitope, all of the four glycans have the same terminal epitope of Fuc a1-2 Gal(b1-3 GalNAc), which is recognized by VK9 antibodies,[38] but a long DNA tag on the DEGL will give more space to the glycan antigens binding with the antibody, while normal ELISA would block the binding of the short glycans of Bb3 and Bb2. […]
(§2) A 96-well plate (Costar® Polystyrene High Binding Plate 3590) was coated with […] of 10 ug/ml Streptavidin (Sigma) in 0.01 M PBS (pH 7.4) at 4° C. overnight. […] The plate was then read at OD450 with a plate reader (PerkinElmer®, 2030 Multilabel Reader Victor®). The result was calculated by minus OD450 value of control (no antibody).

[2] = tested on: VK9, a mouse IgG anti-Globo H monoclonal antibody; test: ELISA of biotinylated glycans captured on streptavidin against VK9; type: binding; details: biotinylated sugars captured on streptavidin; OD450
Text: as §1, §2

## Globo-H [GbH]
VK9 antibody; biotin tagged secondary antibody, magnetic streptavidin beads, NGS
  relative enrichment in comparison with the no VK9 negative control: enriched
VK9 antibody; modified method with control sequence added after selection, Globo-H series+A and B glycan DEGL
  enrichment (NGS): selective enrichment
[1]
  ELISA binding of VK9: strong binding
[2]
  ELISA binding intensity of VK9: very high binding intensities
